The test concerns phenylquinone-induced writhing in mice. As to the kind of experiment: Analgesic testing by phenylquinone-induced writhing test in mice. Format: in vivo, mouse (male NMRI mice). Particulars: 10 min, mouse, phenylquinone i.p. 10 minutes after compound, read-out: % Inhibition of writhing reaction; for inhibition in vivo at 10 mg/kg: 10 mg/kg intravenous. As for the experimental part:
Analgesic Testing by Writhing Test in Mice
The investigation into analgesic efficacy was performed by phenylquinone-induced writhing in mice (modified after: I. C. Hendershot and J. Forsaith (1959) J. Pharmacol. Exp. There. 125, 237–240). Male NMRI mice weighing from 25–30 g were used for this purpose. 10 minutes after intravenous administration of the test compounds, groups of 10 animals per dose of a compound received 0.3 ml/mouse of a 0.02% aqueous solution of phenylquinone (phenylbenzoquinone, sigma, Deisenhofen; production of the solution with addition of 5% ethanol and storage in water bath at 45° C.), administered intraperitoneally. The animals were placed individually in observation cages. A push button counter was used to record the number of pain-induced stretching movements (writhing reactions=straightening of the torso with stretching of the rear extremities) for 5–20 minutes after phenylquinone administration. The control was provided by animals who received only physiological common salt solution. All the compounds were tested at the standard dosage of 10 mg/kg. The percentage inhibition (%inhibition) of the writhing reaction by a compound of the general formula I according to the invention was calculated according to the following formula: […]
The in-depth investigation of the compounds of the general formula I according to the invention for analgesic efficacy was performed by phenylquinone-induced writhing in mice, as described above.

Counter-ions that a name gives are not always drawn.

For `CN(C)C(C1=C(c2ccc(Cl)cc2)CCCC1)c1ccccc1` (stereo not drawn) [Example 28, {[2-(4-Chloro-phenyl)-cyclohex-1-enyl]-phenyl-methyl}-dimethyl-amine hydrochloride], the inhibition in vivo at 10 mg/kg turned out to be 71%. Take `CN(C)C(C1=C(CCc2ccccc2)CCCC1)c1ccccc1` (stereo not drawn) [Example 23, Dimethyl-[(2-phenethyl-cyclohex-1-enyl)-phenyl-methyl]-amine hydrochloride]: the inhibition in vivo at 10 mg/kg came to 67%. Same read-out and setting: with `CN(C)C(C1=C(Cc2cccc(F)c2)CCCC1)c1ccccc1` (stereo not drawn) [Example 21, {[2-(3-Fluoro-benzyl)-cyclohex-1-enyl)-phenyl-methyl}-dimethyl-amine hydrochloride] the figure was 67%. In the case of `CN(C)C(C1=C(Cc2ccccc2F)CCCC1)c1ccccc1` (stereo not drawn) [Example 19, {[2-(2-Fluoro-benzyl)-cyclohex-1-enyl)-phenyl-methyl}-dimethyl-amine hydrochloride], the inhibition in vivo at 10 mg/kg stood at 87%. With `CN(C)C(C1=C(c2ccccc2)CCCC1)c1ccc(C(F)(F)F)cc1` (stereo not drawn) [Example 29, Dimethyl-[(2-phenyl-cyclohex-1-enyl)-(4-trifluoromethyl-phenyl)-methyl]-amine hydrochloride], the inhibition in vivo at 10 mg/kg was determined as 40%. Take `CN(C)C(C1=C(Cc2ccccc2Cl)CCCC1)c1ccccc1` (stereo not drawn) [Example 20, {[2-(2-Chloro-benzyl)-cyclohex-1-enyl]-phenyl-methyl}-dimethyl-amine hydrochloride]: the inhibition in vivo at 10 mg/kg stood at 63%. With `CN(C)C(c1ccccc1)C1CCCC=C1c1cccc(O)c1` (stereo not drawn) [Example 24, 3-[6-(dimethylamino-phenyl-methyl)-cyclohex-1-enyl]-phenol hydrochloride], the inhibition in vivo at 10 mg/kg came to 76%. For the compound `CN(C)C(C1=C(Cc2cccc(C(F)(F)F)c2)CCCC1)c1ccccc1` (stereo not drawn) [Example 22, Dimethyl-{phenyl-[2-(3-trifluoromethyl-benzyl)-cyclohex-1-enyl]-methyl}-amine hydrochloride], the inhibition in vivo at 21.5 mg/kg (21.5 mg/kg intravenous) is 46%.

Turning to `COc1ccc(C2=CCCCC2C(c2ccccc2)N(C)C)cc1` (stereo not drawn) [Example 27, {[2-(4-methoxy-phenyl)-cyclohex-2-enyl]-phenyl-methyl}-dimethylamine hydrochloride], the inhibition in vivo at 10 mg/kg is 47%.

Source of the values: US7064236B2, “Substituted 1-aryl-but-3-enylamine and 1-aryl-but-2-enylamine compounds” (Grunenthal GmbH, priority 2001, dated 2006).
